Measurements published in ChEMBL document CHEMBL2203240, “Synthesis of propiophenone derivatives as new class of antidiabetic agents reducing body weight in db/db mice” (Bioorg Med Chem, 2012).
The source made the active and inactive calls. The rule behind the calls is not given here.

How the values were obtained:
[1] = biological target: T1, Tyrosine-protein phosphatase non-receptor type 1 (Homo sapiens) (UniProt P18031); experiment: Inhibition of PTP1B at 100 uM
T1 sequence (whole entry): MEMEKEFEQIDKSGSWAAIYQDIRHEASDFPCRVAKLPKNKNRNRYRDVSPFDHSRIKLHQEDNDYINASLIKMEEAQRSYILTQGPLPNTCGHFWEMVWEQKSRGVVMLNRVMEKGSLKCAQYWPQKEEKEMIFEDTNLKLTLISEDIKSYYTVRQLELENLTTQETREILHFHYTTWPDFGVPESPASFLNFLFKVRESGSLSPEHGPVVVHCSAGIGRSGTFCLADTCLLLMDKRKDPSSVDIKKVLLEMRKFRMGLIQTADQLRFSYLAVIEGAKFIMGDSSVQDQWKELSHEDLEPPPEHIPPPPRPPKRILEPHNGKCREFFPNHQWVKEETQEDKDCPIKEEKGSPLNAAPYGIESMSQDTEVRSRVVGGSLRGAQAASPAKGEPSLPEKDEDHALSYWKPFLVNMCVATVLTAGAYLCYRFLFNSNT

Rattus norvegicus [2] = experiment: Antihyperglycemic activity against sucrose loaded Charles Foster/Wistar albino rat assessed as reduction in blood glucose level at 100 mg/kg, po administered 30 mins before sucrose challenge by glucometer; format: functional; parameters: scale not given: the % may be the effect or the level left
[3] = Inhibition of glycogen phosphorylase at 100 uM
[4] = Inhibition of alpha-glucosidase at 100 uM
Rattus norvegicus [5] = experiment: Antihyperglycemic activity against sucrose challenged streptozotocin-induced diabetic Sprague-Dawley albino rat assessed as reduction of AUC of plasma glucose level at 100 mg/kg, po after 1 to 24 hrs administered 30 mins before sucrose challenge by glucometer; format: functional; parameters: scale not given: the % may be the effect or the level left
[6] = biological target: T2, Glucose-6-phosphatase catalytic subunit 1 (Homo sapiens) (UniProt P35575); experiment: Inhibition of glucose-6-phosphatase at 100 uM
T2 sequence (whole entry): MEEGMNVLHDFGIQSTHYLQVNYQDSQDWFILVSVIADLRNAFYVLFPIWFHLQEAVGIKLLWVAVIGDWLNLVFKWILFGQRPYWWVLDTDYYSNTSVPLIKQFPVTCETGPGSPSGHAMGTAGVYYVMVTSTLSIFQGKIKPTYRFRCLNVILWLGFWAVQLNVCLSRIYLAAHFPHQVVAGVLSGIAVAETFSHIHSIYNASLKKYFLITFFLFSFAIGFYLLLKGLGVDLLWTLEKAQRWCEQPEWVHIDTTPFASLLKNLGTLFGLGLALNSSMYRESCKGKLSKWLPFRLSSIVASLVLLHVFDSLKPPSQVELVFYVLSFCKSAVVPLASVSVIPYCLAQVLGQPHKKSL

Rattus norvegicus [7] = experiment: Antihyperglycemic activity against sucrose challenged streptozotocin-induced diabetic Sprague-Dawley albino rat assessed as reduction of AUC of plasma glucose level at 100 mg/kg, po after 1 to 5 hrs administered 30 mins before sucrose challenge by glucometer; format: functional; parameters: scale not given: the % may be the effect or the level left
[8] = biological target: Dipeptidyl peptidase 4 (Homo sapiens) (UniProt P27487); experiment: Inhibition of DPP4 at 100 uM
[9] = biological target: T3, Tyrosine-protein phosphatase non-receptor type 1 (Homo sapiens, UniProt P18031); experiment: Inhibition of PTP1B
T3 sequence (P18031 whole entry): T1 sequence (whole entry)

Mus musculus [10] = experiment: Antidyslipidemic activity in C57BL/Ks db/db mouse assessed as increase in HDL-cholesterol at 30 mg/kg/day, po relative to control; format: functional
Mus musculus [11] = experiment: Antihyperglycemic activity in C57BL/Ks db/db mouse assessed as reduction in insulin level at 30 mg/kg/day, po relative to control; format: functional; parameters: scale not given: the % may be the effect or the level left
Mus musculus [12] = experiment: Antiobesity activity in C57BL/Ks db/db mouse assessed as reduction in body weight change at 30 mg/kg/day, po measured for 10 days relative to control; format: functional, organism-based
Mus musculus [13] = experiment: Antihyperglycemic activity in C57BL/Ks db/db mouse assessed as reduction in postprandial hyperglycemia at 30 mg/kg, po measured for 10 days post dose relative to control; format: functional; parameters: scale not given: the % may be the effect or the level left
Mus musculus [14] = experiment: Antidyslipidemic activity in C57BL/Ks db/db mouse assessed as reduction in plasma total cholesterol at 30 mg/kg/day, po relative to control; format: functional; parameters: scale not given: the % may be the effect or the level left
Mus musculus [15] = experiment: Reduction in food intake in C57BL/Ks db/db mouse at 30 mg/kg/day, po measured from day 3 to day 10; format: functional, organism-based
Mus musculus [16] = experiment: Antidyslipidemic activity in C57BL/Ks db/db mouse assessed as reduction in plasma triglyceride level at 30 mg/kg/day, po relative to control; format: functional; parameters: scale not given: the % may be the effect or the level left
Mus musculus [17] = experiment: Antihyperglycemic activity in C57BL/Ks db/db mouse assessed as reduction in blood glucose level at 30 mg/kg/day, po measured on day 6 post dose by postprandial oral glucose tolerance test relative to control; format: functional; parameters: scale not given: the % may be the effect or the level left
Mus musculus [18] = experiment: Antihyperglycemic activity in C57BL/Ks db/db mouse assessed as reduction in blood glucose level at 30 mg/kg/day, po measured day 10 post dose by postprandial oral glucose tolerance test relative to control; format: functional; parameters: scale not given: the % may be the effect or the level left

Chain of Dipeptidyl peptidase 4 (Homo sapiens) (P27487 whole entry, looked up): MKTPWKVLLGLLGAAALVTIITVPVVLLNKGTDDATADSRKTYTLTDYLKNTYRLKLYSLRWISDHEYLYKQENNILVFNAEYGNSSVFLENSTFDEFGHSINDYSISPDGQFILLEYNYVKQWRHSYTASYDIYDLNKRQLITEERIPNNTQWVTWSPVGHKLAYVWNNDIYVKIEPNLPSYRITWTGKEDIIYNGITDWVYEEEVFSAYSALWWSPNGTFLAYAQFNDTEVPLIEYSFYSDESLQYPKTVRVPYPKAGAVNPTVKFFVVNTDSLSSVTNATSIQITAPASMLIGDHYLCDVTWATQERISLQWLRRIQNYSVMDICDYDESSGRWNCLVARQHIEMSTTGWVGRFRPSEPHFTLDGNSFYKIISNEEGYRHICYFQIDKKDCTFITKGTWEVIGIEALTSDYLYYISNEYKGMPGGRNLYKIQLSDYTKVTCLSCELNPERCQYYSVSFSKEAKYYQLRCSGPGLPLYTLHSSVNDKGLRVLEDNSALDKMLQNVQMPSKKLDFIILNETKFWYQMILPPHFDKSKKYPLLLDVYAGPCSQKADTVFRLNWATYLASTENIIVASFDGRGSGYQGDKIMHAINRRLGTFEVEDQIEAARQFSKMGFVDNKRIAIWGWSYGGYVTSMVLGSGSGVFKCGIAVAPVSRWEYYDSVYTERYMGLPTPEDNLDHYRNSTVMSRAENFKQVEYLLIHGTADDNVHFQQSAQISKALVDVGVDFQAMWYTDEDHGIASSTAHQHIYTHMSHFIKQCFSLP

Row | inhibition [1] | inhibition [3] | inhibition [4] | inhibition [6] | inhibition [8] | IC50 [9] | Structure (SMILES) | Activity (Rattus norvegicus [2]) | Activity (Rattus norvegicus [5]) | Activity (Rattus norvegicus [7]) | Activity (Mus musculus [10]) | Activity (Mus musculus [11]) | Activity (Mus musculus [12]) | Activity (Mus musculus [13]) | Activity (Mus musculus [14]) | Activity (Mus musculus [15]) | Activity (Mus musculus [16]) | Activity (Mus musculus [17]) | Activity (Mus musculus [18])
1 | 27.5% | < 5% | < 5% | 21.3% | < 5% |  | CCC(=O)c1c(O)cccc1OCCN1CCCCC1 | 40.4% | 19.7% | 29.2% |  |  |  |  |  |  |  |  | 
2 |  |  |  |  |  |  | CN(C)C(=N)NC(=N)N [METFORMIN] | 18.9% |  |  |  |  |  |  |  |  |  |  | 
3 | 52.1% | 24.8% | < 5% | 18.3% | 17.4% | 19.2 µM | CCCCNCCCOc1cccc(O)c1C(=O)CC | 11% |  |  |  |  |  |  |  |  |  |  | 
4 | 51.1% | < 5% | < 5% | < 5% | < 5% | 20.4 µM | CCOC(=O)C(CCCOc1cccc(OCCN(C)C)c1C(=O)CC)C(=O)OCC | 11.5% |  |  |  |  |  |  |  |  |  |  | 
5 | 83.6% | 23% | 19.3% | < 5% | 13.7% | 8.3 µM | CCC(=O)c1c(O)cccc1OCCCNc1ccc(OC)cc1 | 54.6% | 22.8% | 22.1% | 7.2% | 23.6% | Active | 23.9% | 14.8% | Active | 22% | 28.4% | 29.9%
6 | 42.6% | < 5% | 11.8% | < 5% | < 5% |  | CCOC(=O)C(CCCOc1cccc(OCCCNc2ccc(C)cc2)c1C(=O)CC)C(=O)OCC | 8.49% |  |  |  |  |  |  |  |  |  |  | 
7 |  |  |  |  |  |  | CN(CCOc1ccc(CC2SC(=O)NC2=O)cc1)c1ccccn1 (centres undefined) [ROSIGLITAZONE] |  |  |  |  |  |  | 51.3% |  |  |  | 33.9% | 46.5%
8 | 31.8% | < 5% | < 5% | < 5% | < 5% |  | CCC(=O)c1c(O)cccc1OCCCN1CCCCC1 | 33.2% | 8.6% | 10.2% |  |  |  |  |  |  |  |  | 
9 | 19.3% | < 5% | 18.4% | 11.3% | 24.2% |  | CCC(=O)c1c(O)cccc1OCCN(C)C | 19.45% | 7.4% | 12.1% |  |  |  |  |  |  |  |  | 
10 | 40.4% | 22.9% | < 5% | < 5% | < 5% |  | CCOC(=O)C(CCCOc1cccc(OCCN(CC)CC)c1C(=O)CC)C(=O)OCC | 17% |  |  |  |  |  |  |  |  |  |  | 
11 | 36.4% | 13.7% | 28.9% | < 5% | < 5% |  | CCC(=O)c1c(O)cccc1OCCN1CCCC1 | 21.08% |  |  |  |  |  |  |  |  |  |  | 
12 | 58.6% | < 5% | < 5% | 13.9% | 18.3% | 18.6 µM | CCOC(=O)C(CCCOc1cccc(OCCN2CCCC2)c1C(=O)CC)C(=O)OCC | 22.9% |  |  |  |  |  |  |  |  |  |  | 
13 |  |  |  |  |  |  | COc1ccc(Cl)cc1C(=O)NCCc1ccc(S(=O)(=O)NC(=O)NC2CCCCC2)cc1 [GLYBURIDE] | 32.3% |  |  |  |  |  |  |  |  |  |  | 
14 | 19.6% | < 5% | < 5% | < 5% | < 5% |  | CCOC(=O)C(CCCOc1cccc(OCCN2CCCCC2)c1C(=O)CC)C(=O)OCC | 16.4% |  |  |  |  |  |  |  |  |  |  | 
15 | 31.9% | < 5% | < 5% | 17.3% | < 5% |  | CCCCN(C)CCCOc1cccc(O)c1C(=O)CC | 23.8% | 21.5% | 27.5% | 4.03% | 27.7% | Active | 39.6% | 20.4% | Active | 23.8% | 26.7% | 33.6%
16 | 28.8% | < 5% | 19.3% | 11.6% | < 5% |  | CCC(=O)c1c(O)cccc1OCCN(CC)CC | 38.4% | 20.4% | 23% |  |  |  |  |  |  |  |  | 
17 | 79.8% | < 5% | 18.9% | 18.9% | < 5% | 12.5 µM | CCC(=O)c1c(O)cccc1OCCCNc1ccc(C)cc1 | 28.7% | 2.02% | 3.02% |  |  |  |  |  |  |  |  | 
18 | 42.1% | 19.5% | < 5% | 13.6% | 25.6% |  | CCC(=O)c1c(O)cccc1OCCCN1CCCC1 | 26.8% | 14.8% | 16.9% |  |  |  |  |  |  |  |  | 
